Experimental data as given in US5627161A (Memorial Hospital for Cancer and Allied Diseases, priority 1993, dated 1997).

System: PRPP levels of isolated splenocytes
Assay: PRPP levels of isolated splenocytes incubated in vitro with UDPG or G-6-P
Type: cell-based, mouse
Conditions: for PRPP levels: soluble fraction of homogenates
Procedure: Isolation of splenocytes and hepatic cells: The organs were gently teased apart with forceps over a fine tea strainer into PBS or minimum essential culture medium (MEM) containing 0.1M potassium phosphate buffer pH 7.4 with and without added effectors. […] The supernatant solutions were assayed for PRPP.
The vials were shaken vigorously and their radioactivity determined.

SMILES: O=P(O)(O)OC[C@H]1OC(O)[C@H](O)[C@@H](O)[C@@H]1O (some centres unmarked) [G-6-P, Glucose-6-phosphate]
- PRPP levels (1.1 mM in MEM): 969 pmoles/mg protein
- PRPP levels (5.5 mM in MEM): 1418 pmoles/mg protein
- PRPP levels (11 mM in MEM): 1510 pmoles/mg protein
- PRPP levels (22 mM in MEM): 1998 pmoles/mg protein
- effect on intracellular PRPP level of splenocytes as a function of concentration (isolated splenocytes, in words): not evident below a concentration of 5.5 mM
